Source: patent US5208263A, “Anti-androgen compounds” (Arch Development Corporation, priority 1989, dated 1993)

Test system: ventral prostate
Assay: not given
Settings: rats; Chang et al. 1987; cited from earlier work
In the case of c1ccc2c(c1)CCc1ccccc1-2 [9,10-dihydrophenanthrene, reference compound], the “inhibition of growth of the ventral prostate” value is given as “inhibits the growth of the ventral prostate in rats”.

Test system: androgen receptors
Assay: not given
Settings: Chang et al. 1987; cited from earlier work
In the case of c1ccc2c(c1)CCc1ccccc1-2 [9,10-dihydrophenanthrene, reference compound], the “interaction with androgen receptors in cell-free systems” value is listed as “interacts with androgen receptors in cell-free systems”.

Target: T1, androgen receptor of rat ventral prostate (Rattus norvegicus, UniProt P15207)
T1 construct: androgen receptors isolated, as described in Chang, C., et al., J. Steroid Biochem., 27:123 (1987), from rat ventral prostate; from tissue; host or cells: rat ventral prostate
T1 sequence (P15207 1-902): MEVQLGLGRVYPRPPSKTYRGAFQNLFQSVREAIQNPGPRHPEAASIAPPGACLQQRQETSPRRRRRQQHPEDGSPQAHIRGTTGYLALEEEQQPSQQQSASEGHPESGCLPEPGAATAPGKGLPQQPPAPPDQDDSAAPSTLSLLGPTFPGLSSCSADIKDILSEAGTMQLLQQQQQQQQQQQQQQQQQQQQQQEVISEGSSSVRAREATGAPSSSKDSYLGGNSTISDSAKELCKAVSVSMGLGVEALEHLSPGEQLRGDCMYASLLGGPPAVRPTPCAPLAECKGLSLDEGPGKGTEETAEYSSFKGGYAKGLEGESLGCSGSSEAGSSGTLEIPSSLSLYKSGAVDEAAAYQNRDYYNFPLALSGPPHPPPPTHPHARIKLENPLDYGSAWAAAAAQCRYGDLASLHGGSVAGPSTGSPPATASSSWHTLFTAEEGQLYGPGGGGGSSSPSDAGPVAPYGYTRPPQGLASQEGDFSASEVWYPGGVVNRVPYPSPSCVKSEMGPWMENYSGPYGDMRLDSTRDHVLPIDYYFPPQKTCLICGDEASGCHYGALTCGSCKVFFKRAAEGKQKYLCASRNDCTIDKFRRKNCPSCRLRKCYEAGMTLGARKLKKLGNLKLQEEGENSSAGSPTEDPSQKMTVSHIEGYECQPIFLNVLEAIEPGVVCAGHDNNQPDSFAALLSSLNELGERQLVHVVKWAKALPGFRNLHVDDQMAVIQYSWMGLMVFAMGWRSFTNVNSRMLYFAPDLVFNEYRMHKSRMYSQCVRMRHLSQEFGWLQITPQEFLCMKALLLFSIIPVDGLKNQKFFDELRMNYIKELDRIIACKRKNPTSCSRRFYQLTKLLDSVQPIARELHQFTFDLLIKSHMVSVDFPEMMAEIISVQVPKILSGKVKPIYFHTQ
Assay: Competition with [3H]R1881 for androgen receptor binding, cell-free assay (Table 1)
Settings: not given
For “1-[2-(9(or 10)-methyl-9,10-dihydrophenanthryl)]-1-ethanol [Compound 11]”, the “Relative receptor binding activity (RBA)” value was 0.29.
With O=C1CCc2c1ccc1c2CCc2ccccc2-1 (racemic) [Compound 6, 6,7,16,17-Tetrahydro-15H-cyclopenta[a]phenanthren-17-one] the IC50 was 17.8 µM and the “Relative receptor binding activity (RBA)” value was 0.11.
With c1cc2c(c3c1CCCC3)CCCC2 [1,2,3,4,5,6,7,8-octahydro-phenanthrene, reference compound] the IC50 was 200 µM.
c1ccc2c(c1)CCc1ccccc1-2 [9,10-dihydrophenanthrene, reference compound] showed an IC50 of 10 µM.
For c1ccc2c(c1)CCc1ccccc1C2 [10,11-dihydro-5H-dibenzo-[a,d]cycloheptene, reference compound], the IC50 was 60 µM.
For OC1CCc2c1ccc1c2CCc2ccccc2-1 (stereo not shown) [Compound 7, 6,7,16,17-tetrahydro-15H-cyclo-penta[a]phen-anthren-17-ol], the IC50 was 4.2 µM and the “Relative receptor binding activity (RBA)” value was 0.48.
CC(O)c1ccc2c(c1)CCc1ccccc1-2 (stereo not shown) [Compound 9, 1-[2-(9,10-Dihydrophenanthryl)]-1-ethanol] gave an IC50 of 2.6 µM.
Oc1ccc2c(c1)CCc1ccccc1-2 [Compound 13, 2-Hydroxy-9,10-dihydrophenanthrene] gave an IC50 of 7.9 µM.
Work on O=C1CCc2c(ccc3c2CCc2c(O)cccc2-3)C1 [Compound 22, 4'-oxo-7,8-cyclohexeno-9,10-dihydrophenanthren-1-ol] yielded an IC50 of 1.3 µM.
With O=C1CCc2c(ccc3c2ccc2c(O)cccc23)C1 [Compound 25, 4'-oxo-7,8-cyclohexenophenanthren-1-ol] the IC50 was greater than 100 µM and the “Relative receptor binding activity (RBA)” value was less than 0.02.
OCCc1ccc2c(c1)CCc1ccccc1-2 [Compound 26, 2-(2'-hydroxyethyl)-9,10-dihydrophenanthrene] showed an IC50 of 3.6 µM.
Compound OCC(O)c1ccc2c(c1)CCc1ccccc1-2 (stereo not shown) [Compound 27, 2-(2',3'-dihydroxyethyl)-9,10-dihydrophenanthrene] has an IC50 of 47.9 µM.
c1ccc2c(c1)ccc1ccccc12 [phenanthrene, reference compound] gave an IC50 of 800 µM.

Same assay, conditions: in parentheses; relative to R1881 = 100.00; cell-free, rat ventral prostate
With c1cc2c(c3c1CCCC3)CCCC2 [1,2,3,4,5,6,7,8-octahydro-phenanthrene, reference compound] the “Relative receptor binding activity (RBA)” value was 0.01.
For c1ccc2c(c1)CCc1ccccc1-2 [9,10-dihydrophenanthrene, reference compound], the “Relative receptor binding activity (RBA)” value was 0.20.
In the case of c1ccc2c(c1)CCc1ccccc1C2 [10,11-dihydro-5H-dibenzo-[a,d]cycloheptene, reference compound], the “Relative receptor binding activity (RBA)” value is reported as 0.03.
For CC(O)c1ccc2c(c1)CCc1ccccc1-2 (stereo not shown) [Compound 9, 1-[2-(9,10-Dihydrophenanthryl)]-1-ethanol], the “Relative receptor binding activity (RBA)” value was 0.77.
In the case of Oc1ccc2c(c1)CCc1ccccc1-2 [Compound 13, 2-Hydroxy-9,10-dihydrophenanthrene], the “Relative receptor binding activity (RBA)” value is reported as 0.25.
With O=C1CCc2c(ccc3c2CCc2c(O)cccc2-3)C1 [Compound 22, 4'-oxo-7,8-cyclohexeno-9,10-dihydrophenanthren-1-ol] the “Relative receptor binding activity (RBA)” value was 1.53.
For OCCc1ccc2c(c1)CCc1ccccc1-2 [Compound 26, 2-(2'-hydroxyethyl)-9,10-dihydrophenanthrene], the “Relative receptor binding activity (RBA)” value was 0.56.
With OCC(O)c1ccc2c(c1)CCc1ccccc1-2 (stereo not shown) [Compound 27, 2-(2',3'-dihydroxyethyl)-9,10-dihydrophenanthrene] the “Relative receptor binding activity (RBA)” value was 0.04.
In the case of c1ccc2c(c1)ccc1ccccc12 [phenanthrene, reference compound], the “Relative receptor binding activity (RBA)” value is reported as 0.0025.

Same assay, conditions: read-out: IC50 (concentration of test compound needed to show 50% inhibition of [3H]R1881 binding); [3H]R1881 (17a-methyltrienolone) binding; androgen receptor of rat ventral prostate; cell-free
With “1-[2-(9(or 10)-methyl-9,10-dihydrophenanthryl)]-1-ethanol [Compound 11]” the IC50 was 6.8 µM.
